Measurements as given in US8957082B2, “Tetrahydropyrrolopyrimidinediones and their use in therapy” (Chiesi Farmaceutici S.p.A, priority 2006, dated 2015).
pIC50: −log10 of the molar value.

Biological target: T1, human neutrophil elastase (HNE) (Homo sapiens, UniProt P08246)
T1 sequence (P08246 30-267): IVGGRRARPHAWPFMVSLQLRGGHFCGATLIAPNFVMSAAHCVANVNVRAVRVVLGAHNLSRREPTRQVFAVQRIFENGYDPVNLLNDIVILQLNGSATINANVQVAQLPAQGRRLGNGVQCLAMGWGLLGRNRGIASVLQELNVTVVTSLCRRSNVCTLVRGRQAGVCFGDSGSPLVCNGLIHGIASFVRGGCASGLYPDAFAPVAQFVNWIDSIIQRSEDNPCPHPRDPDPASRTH
Assay: HNE induced lung haemorrhage in the rat
Assay type: in vivo
Conditions: male Sprague Dawley rats, compound dosed locally to the lung (i.t. or i.n.) before HNE, blood in BALF one hour post HNE challenge
Source text: HNE Induced Lung Haemorrhage in the Rat
Instillation of human neutrophil elastase (HNE) into rat lung causes acute lung damage. The extent of this injury can be assessed by measuring lung haemorrhage. Male Sprague Dawley rats (175-220 g) were obtained from Harlan UK Ltd., full barrier-bred and certified free from specified micro-organisms on receipt. Animals were weighed and randomly assigned to treatment groups (7-12 animals per group).
The vehicle used was 1% DMSO/Saline. Inhibitors were dissolved in 1% DMSO before the addition of 0.9% saline.
Animals in each study used to determine the efficacy of the elastase inhibitors delivered locally to the lung by a variety of routes. Rats were anaesthetised with the inhaled anaesthetic isoflurane (4%) when the dose was given from 30 minutes to 6 h prior to human neutrophil elastase ([…]) administration or terminally anaesthetised with hypnorm:hypnovel:water (1.5:1:2 at 2.7 ml/kg) when the predose was given at less than 30 minutes prior to HNE administration and dosed either intratracheally (i.t.) by transoral administration using a Penn Century microsprayer or intranasally (i.n.) by dropping the fluid on to the nares. Animals either received vehicle or compound at a dose volume of 0.5 ml/kg.
Animals that had been allowed to recover after dosing were terminally anaesthetised with hypnorm:hypnovel:water (1.5:1:2 at 2.7 ml/kg). Once sufficiently anaesthetised, HNE (600 units/ml) or sterile saline was administered by transoral tracheal instillation at a volume of 100 μl using a Penn Century microsprayer. Animals were kept warm in a temperature controlled box and given top up doses of anaesthetic as required to ensure continuous anaesthesia until termination.
Animals were sacrificed (0.5 ml to 1 ml sodium pentobarbitone) one hour post HNE challenge. The trachea was exposed and a small incision made between two tracheal rings allowing a cannula (10 gauge, O.D. 2-10 mm, Portex Ltd.) to be inserted approximately 2 cm into the trachea towards the lung. This was secured into place with a cotton ligature. The lungs were then lavaged (BAL) three times with fresh 4 ml aliquots of heparinised (10 units/ml) phosphate buffered saline (PBS). The resultant BALF was kept on ice until it was centrifuged.
The BALF was centrifuged at 1000 r.p.m. for 10 minutes in a centrifuge cooled to between 4 and 10° C. The supernatant was discarded and the cell pellet resuspended in 1 ml 0.1% CETAB/PBS to lyse the cells. Cell lysates were frozen until spectrophotometric analysis for blood content could be made. Standards were prepared by making solutions of whole rat blood in 0.1% CETAB/PBS.
Once defrosted 100 μl of each lysed cell suspension was placed into a separate well of a 96 well flat bottomed plate. All samples were tested in duplicate and 100 μl 0.1% CETAB/PBS was included on the plate as a blank. The OD of the contents of each well was measured at 415 nm using a spectramax 250 (Molecular devices).
A standard curve was constructed by measuring the OD (at 415 nm) of different concentrations of blood in 0.1% CETAB/PBS (30, 10, 7, 3, 1, 0.3, 0.1 μl/ml).
The amount of blood in each experimental sample was calculated by comparison to the standard curve. Data were then analysed as below:
1) The mean OD for duplicates was calculated
2) The value for the blank was subtracted from the value for all other samples
3) Data were assessed to evaluate the normality of distribution.

SMILES | reducing the quantity of blood haemorrhaged relative to control
C[N+](C)(CCCN1CC2=C(C1=O)[C@@H](c1ccc(C#N)cc1)N(CC(=O)O)C(=O)N2c1cccc(C(F)(F)F)c1)CCCN1CC2=C(C1=O)[C@@H](c1ccc(C#N)cc1)N(CC(=O)O)C(=O)N2c1cccc(C(F)(F)F)c1.O=C([O-])C(F)(F)F [Example 41] | effective in reducing the quantity of blood haemorrhaged
C[N+](CCCN1CC2=C(C1=O)[C@@H](c1ccc(C#N)cc1)NC(=O)N2c1cccc(C(F)(F)F)c1)(CCCN1CC2=C(C1=O)[C@@H](c1ccc(C#N)cc1)NC(=O)N2c1cccc(C(F)(F)F)c1)CC(=O)[O-] [Example 49] | effective in reducing the quantity of blood haemorrhaged
CN(CCCN1CC2=C(C1=O)[C@@H](c1ccc(C#N)cc1)NC(=O)N2c1cccc(C(F)(F)F)c1)CCCN1CC2=C(C1=O)[C@@H](c1ccc(C#N)cc1)NC(=O)N2c1cccc(C(F)(F)F)c1 [Example 17] | effective in reducing the quantity of blood haemorrhaged
C[N+](C)(CCCCN1CC2=C(C1=O)[C@@H](c1ccc(C#N)cc1)NC(=O)N2c1cccc(C(F)(F)F)c1)CCCOc1ccccc1.[Br-] [Example 61] | effective in reducing the quantity of blood haemorrhaged
C[N+](C)(CCCN1CC2=C(C1=O)[C@@H](c1ccc(C#N)cc1)NC(=O)N2c1cccc(C(F)(F)F)c1)CCCN1CC2=C(C1=O)[C@@H](c1ccc(C#N)cc1)NC(=O)N2c1cccc(C(F)(F)F)c1.O=C[O-] [Example 59] | effective in reducing the quantity of blood haemorrhaged
N#Cc1ccc([C@H]2NC(=O)N(c3cccc(C(F)(F)F)c3)C3=C2C(=O)N(CCN2CCN(CCN4CC5=C(C4=O)[C@@H](c4ccc(C#N)cc4)NC(=O)N5c4cccc(C(F)(F)F)c4)C2=N)C3)cc1 [Example 43] | effective in reducing the quantity of blood haemorrhaged
CCN1CC2=C(C1=O)[C@@H](c1ccc(C#N)cc1)N(CC(=O)NCCNC(=N)NCCNC(=O)CN1C(=O)N(c3cccc(C(F)(F)F)c3)C3=C(C(=O)N(CC)C3)[C@H]1c1ccc(C#N)cc1)C(=O)N2c1cccc(C(F)(F)F)c1 [Example 30] | effective in reducing the quantity of blood haemorrhaged
C[N+](CCCCN1CC2=C(C1=O)[C@@H](c1ccc(C#N)cc1)NC(=O)N2c1cccc(C(F)(F)F)c1)(CCCOc1ccccc1)CCCOc1ccccc1.O=C[O-] [Example 64] | effective in reducing the quantity of blood haemorrhaged
N#Cc1ccc([C@H]2NC(=O)N(c3cccc(C(F)(F)F)c3)C3=C2C(=O)N(CCCNCCCN2CC4=C(C2=O)[C@@H](c2ccc(C#N)cc2)NC(=O)N4c2cccc(C(F)(F)F)c2)C3)cc1.O=CO [Example 18] | effective in reducing the quantity of blood haemorrhaged
C[N+](C)(CCCN1CC2=C(C1=O)[C@@H](c1ccc(C#N)cc1)NC(=O)N2c1cccc(C(F)(F)F)c1)CCCN1CC2=C(C1=O)[C@@H](c1ccc(C#N)cc1)NC(=O)N2c1cccc(C(F)(F)F)c1.[I-] [Example 32] | effective in reducing the quantity of blood haemorrhaged

Same assay, conditions: rat, 30 mg/kg it, 1 hour prior to HNE; statistically significant

SMILES | reduction in haemorrhage relative to control [%]
C[N+](C)(CCCN1CC2=C(C1=O)[C@@H](c1ccc(C#N)cc1)NC(=O)N2c1cccc(C(F)(F)F)c1)CCCN1CC2=C(C1=O)[C@@H](c1ccc(C#N)cc1)NC(=O)N2c1cccc(C(F)(F)F)c1.[I-] [Example 32] | 67

Biological target: T2, human leukocyte elastase (HNE) (Homo sapiens, UniProt P08246)
T2 construct: purchased Sigma E8140
T2 sequence (P08246 30-247 limits assumed): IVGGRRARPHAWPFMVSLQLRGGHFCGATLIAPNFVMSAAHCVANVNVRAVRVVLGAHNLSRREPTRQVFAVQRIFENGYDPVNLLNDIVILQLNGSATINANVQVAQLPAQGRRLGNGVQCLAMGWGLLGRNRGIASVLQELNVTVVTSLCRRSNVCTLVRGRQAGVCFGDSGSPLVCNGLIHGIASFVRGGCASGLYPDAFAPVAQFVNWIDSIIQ
Assay: HNE inhibitory activity (fluorescent peptide substrate / fluorescently labelled elastin assays)
Assay type: biochemical
Conditions: which of the two substrate assays is not stated
Procedure: Compounds of the invention were tested for their HNE inhibitory activity.
Fluorescent Peptide Substrate
Assays were performed in 96-well plates at a total assay volume of 100 μl. The final concentration of the enzyme (human leukocyte elastase, Sigma E8140) was 0.00036 units/well. A peptide substrate (MeO-Suc-Ala-Ala-Pro-ValAMC, Calbiochem #324745) was used, at the final concentration of 100 μM. The final concentration of DMSO was 1% in the assay buffer (0.05M Tris.HCl, pH 7.5, 0.1M NaCl; 0.1M CaCl2; 0.0005% brij-35).
The enzymatic reaction was started by adding the enzyme. The enzymatic reaction was performed at RT and after 30 mins stopped by adding 50 μl soybean trypsin inhibitor (Sigma T-9003) at a final concentration of 50 μg/well. Fluorescence was read on the FLEXstation (Molecular Devices) using 380 nm excitation and 460 nm emission filters. […] The results are means of two independent experiments, each performed in duplicate.
Using Fluorescently Labelled Elastin
Assays were performed in 96-well plate at a total assay volume of 100 μl. The final concentration of the enzyme (human leukocyte elastase, Sigma E8140) was 0.002 units/well. […]
The enzymatic reaction was started by adding the enzyme. The enzymatic reaction was performed at RT and read after 120 minutes. Fluorescence was read on the FLEXstation (Molecular Devices) using 485 nm excitation and 530 nm emission filters. […]

SMILES | pIC50
CN(CCCN1CC2=C(C1=O)[C@@H](c1ccc(I)cc1)NC(=O)N2c1cccc(C(F)(F)F)c1)CCCN1CC2=C(C1=O)[C@@H](c1ccc(I)cc1)NC(=O)N2c1cccc(C(F)(F)F)c1 [Example 23] | 6.30 to 7.30
